Assays:
[1] = target: JAK2 (Homo sapiens (Human), UniProt O60674); test: Biochemical JAK kinase assay (LanthaScreen), JAK2; conditions: read-out: JAK2 pKi (converted)
Method: Recombinant GST-tagged JAK enzymes and a GFP-tagged STAT1 peptide substrate were obtained from Life Technologies. Serially diluted compounds were pre-incubated with each of the four JAK enzymes and the substrate in white 384-well microplates (Corning) at ambient temperature for 1 h. ATP was subsequently added to initiate the kinase reactions in 10 μL total volume, with 1% DMSO. […] Kinase reactions were allowed to proceed for 1 hour at ambient temperature before a 10 μL preparation of EDTA (10 mM final concentration) and Tb-anti-pSTAT1 ([…]) antibody (Life Technologies, 2 nM final concentration) in TR-FRET dilution buffer (Life Technologies) was added. The plates were allowed to incubate at ambient temperature for 1 h before being read on the EnVision reader (Perkin Elmer). Emission ratio signals (520 nm/495 nm) were recorded and utilized to calculate the percent inhibition values based on DMSO and background controls. For dose-response analysis, percent inhibition data were plotted vs. compound concentrations, and IC50 values were determined from a 4-parameter robust fit model with the Prism software (GraphPad Software). Results were expressed as pIC50 (negative logarithm of IC50) and subsequently converted to pKi (negative logarithm of dissociation constant, Ki) using the Cheng-Prusoff equation. Test compounds having a lower Ki value or higher pKi value in the four JAK assays show greater inhibition of JAK activity.

[2] = Pharmacokinetics in plasma and lung in mouse; type: in vivo; conditions: single oral aspiration, 0.2 mg/mL, 50 μL
Method: Plasma and lung concentrations of test compounds and ratios thereof were determined in the following manner. BALB/c mice from Charles River Laboratories were used in the assay. Test compounds were individually formulated in 20% propylene glycol in pH 4 citrate buffer at a concentration of 0.2 mg/mL and 50 μL of the dosing solution was introduced into the trachea of a mouse by oral aspiration. At various time points (typically 0.167, 2, 6, 24 hr) post dosing, blood samples were removed via cardiac puncture and intact lungs were excised from the mice.

[3] = tested on: IL-27 induced CXCL10 secretion; test: Inhibition of IL-27 induced CXCL10 in human 3D airway cultures; type: cell-based; conditions: 192 h, 8 days, 4 donors
Method: EpiAirway tissue cultures were obtained from Mattek (AIR-100). Cultures were derived from asthmatic donors. In a cell culture insert, human derived tracheal/bronchial epithelial cells were grown and differentiated on a porous membrane support, allowing an air-liquid interface with warmed culture medium below the cells and a gaseous test atmosphere above. Tissues were cultured in maintenance media ([…]) in a 37° C., 5% CO2 humidified incubator. Four donors were tested. On Day 0, tissue cultures were treated with test compounds in liquid interface at 10 μM, 1 μM and/or 0.1 μM. Compounds were diluted in dimethyl sulfoxide (DMSO, Sigma) to a final concentration of 0.1%. DMSO at 0.1% was used as a vehicle control. […] Tissue cultures were maintained for 8 days. Media was replaced every 2 days with fresh media containing compounds and IFNγ or IL-27. On Day 8, tissue cultures and supernatants were collected for analysis. Supernatant samples were assayed for CXCL10 (IP-10) and CXCL9 (MIG) using luminex analysis (EMD Millipore). Data is expressed as % Inhibition+/-standard deviation (±STDV). Percent inhibition was determined by compound inhibitory potency against IFNγ or IL-27 induced CXCL10 or CXCL9 secretion compared to vehicle treated cells. Data is the average from 4 donors.

[4] = tested on: IFNγ stimulated STAT1 phosphorylation in CD14+ monocytes; test: Cellular JAK potency assay: inhibition of IFNγ-induced pSTAT1; type: cell-based; conditions: Monocyte; CD14+ monocytes from human whole blood; read-out: pIC50, inhibition of IFNγ-induced pSTAT1 (converted)
Method: The potency of test compounds for inhibition of interferon gamma (IFNγ) stimulated STAT1 phosphorylation was measured in CD14-positive (CD14+) monocytes derived from human whole blood (Stanford Blood Center) using flow cytometry. Because IFNγ signals through JAK, this assay provides a measure of JAK cellular potency. Monocytes were identified using a fluorescein isothiocyanate (FITC) conjugated anti-CD14 antibody (Clone RM052, Beckman Coulter), and an Alexa Fluor 647 conjugated anti-pSTAT1 antibody ([…], Clone 4a, BD Biosciences) was used to detect STAT1 phosphorylation. Human peripheral blood mononuclear cells (PBMC) were isolated from human whole blood of healthy donors using a ficoll gradient. […] Cells were washed twice with FACS buffer, and then re-suspended in 1:10 anti-pSTAT1 Alexa Fluor 647:FACS buffer (100 μL) for 30 min at RT in the dark, washed twice in FACS buffer, and analyzed using a MACSQuant flow cytometer (Miltenyi). To determine the inhibitory potency of the test compound, the median fluorescent intensity (MFI) of pSTAT1 was measured in CD14+ monocytes. IC50 values were determined from analysis of the inhibition curves of MFI vs compound concentration. Data are expressed as pIC50 (negative decadic logarithm IC50) values.

Sequence of JAK2 (O60674 whole entry): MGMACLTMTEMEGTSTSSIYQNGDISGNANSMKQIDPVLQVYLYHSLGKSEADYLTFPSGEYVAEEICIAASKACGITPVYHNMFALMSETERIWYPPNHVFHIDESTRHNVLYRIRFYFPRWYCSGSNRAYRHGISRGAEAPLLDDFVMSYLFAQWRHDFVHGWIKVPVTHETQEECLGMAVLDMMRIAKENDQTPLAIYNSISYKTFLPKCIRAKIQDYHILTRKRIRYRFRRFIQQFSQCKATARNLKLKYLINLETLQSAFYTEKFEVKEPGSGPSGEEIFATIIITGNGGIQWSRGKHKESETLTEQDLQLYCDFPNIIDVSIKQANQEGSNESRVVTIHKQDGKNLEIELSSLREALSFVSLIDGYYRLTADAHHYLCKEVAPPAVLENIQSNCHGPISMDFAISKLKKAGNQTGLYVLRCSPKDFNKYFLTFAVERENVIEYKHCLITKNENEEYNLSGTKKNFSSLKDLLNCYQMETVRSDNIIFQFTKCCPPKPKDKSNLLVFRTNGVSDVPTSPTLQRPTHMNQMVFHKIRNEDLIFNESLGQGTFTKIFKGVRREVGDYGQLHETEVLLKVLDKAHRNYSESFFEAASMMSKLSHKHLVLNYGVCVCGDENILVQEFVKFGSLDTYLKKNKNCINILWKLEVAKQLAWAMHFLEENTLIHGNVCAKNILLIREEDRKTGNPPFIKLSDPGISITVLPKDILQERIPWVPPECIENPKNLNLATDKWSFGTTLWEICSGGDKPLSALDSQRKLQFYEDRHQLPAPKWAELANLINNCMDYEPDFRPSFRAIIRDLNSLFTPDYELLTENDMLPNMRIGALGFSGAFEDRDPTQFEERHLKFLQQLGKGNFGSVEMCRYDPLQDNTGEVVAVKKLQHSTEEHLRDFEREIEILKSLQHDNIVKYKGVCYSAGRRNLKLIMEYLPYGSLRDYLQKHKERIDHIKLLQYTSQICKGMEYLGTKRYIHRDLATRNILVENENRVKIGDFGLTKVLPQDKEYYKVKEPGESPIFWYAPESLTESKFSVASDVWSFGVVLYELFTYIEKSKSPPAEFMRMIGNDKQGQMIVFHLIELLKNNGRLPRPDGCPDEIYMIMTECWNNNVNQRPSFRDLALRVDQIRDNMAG

SMILES: CCc1cc(O)ccc1-c1ccc2c(-c3nc4c([nH]3)CN(C(C)C)[C@H](C(=O)N3CC(N(C)C)C3)C4)n[nH]c2c1 [Compound 1, (S)-(3-(dimethylamino)azetidin-1-yl)(2-(6-(2-ethyl-4-hydroxyphenyl)-1H-indazol-3-yl)-5-isopropyl-4,5,6,7-tetrahydro-3H-imidazo[4,5-c]pyridin-6-yl)methanone]
- Ki [1]: 0.0316 nM
- AUC(0-t) ([2]; BALB/c, in vivo, 10 µg/animal, read-out: Plasma AUC(0-24)): 943 ng·h/mL
- Lung Tissue AUC(0-24) [2]: 54.5 µg·h/g
- inhibition at 0.1 µM ([3]; 0.1 μM): 25%
- inhibition at 1 µM ([3]; 1 μM): 98%
- inhibition at 10 µM ([3]; 10 μM): 100%
- IC50 [4]: 31.6 nM

Source: US10947229B2, “Dimethyl amino azetidine amides as JAK inhibitors” (THERAVANCE BIOPHARMA R&D IP, LLC, priority 2018, dated 2021)
